From ChEMBL document CHEMBL1147945, “R-isomers of Arg-Gly-Asp (RGD) mimics as potent alphavbeta3 inhibitors” (Bioorg Med Chem, 2007)
The source made the active and inactive calls. The rule behind the calls is not given here.

Experiments:
[1] = Half life in mouse at 20 mg/kg po or 10 mg/kg iv; assay type: ADME, organism-based; details: in vivo
[2] = Drug level in BALB/c mouse plasma after 6 hrs at 10 mg/kg, ip; assay type: ADME, organism-based; design: dose 10 mg/kg, route intraperitoneal; details: read-out: Drug uptake
[3] = Drug level in BALB/c mouse plasma after 6 hrs at 100 mg/kg, ip; assay type: ADME, organism-based; design: dose 100 mg/kg, route intraperitoneal; details: read-out: Drug uptake
[4] = Bioavailability in mouse at 20 mg/kg, po; assay type: ADME, organism-based; details: in vivo
Integrin alpha-V/beta-6 = Integrin alpha-V/beta-6 (Homo sapiens, UniProt P06756+P18564); experiment: Inhibition of alpha-V-beta-6 integrin receptor in human HT29 cells; assay type: cell-based, HT-29
Integrin alpha-V/beta-6, sequence (P06756 31-889 limits assumed): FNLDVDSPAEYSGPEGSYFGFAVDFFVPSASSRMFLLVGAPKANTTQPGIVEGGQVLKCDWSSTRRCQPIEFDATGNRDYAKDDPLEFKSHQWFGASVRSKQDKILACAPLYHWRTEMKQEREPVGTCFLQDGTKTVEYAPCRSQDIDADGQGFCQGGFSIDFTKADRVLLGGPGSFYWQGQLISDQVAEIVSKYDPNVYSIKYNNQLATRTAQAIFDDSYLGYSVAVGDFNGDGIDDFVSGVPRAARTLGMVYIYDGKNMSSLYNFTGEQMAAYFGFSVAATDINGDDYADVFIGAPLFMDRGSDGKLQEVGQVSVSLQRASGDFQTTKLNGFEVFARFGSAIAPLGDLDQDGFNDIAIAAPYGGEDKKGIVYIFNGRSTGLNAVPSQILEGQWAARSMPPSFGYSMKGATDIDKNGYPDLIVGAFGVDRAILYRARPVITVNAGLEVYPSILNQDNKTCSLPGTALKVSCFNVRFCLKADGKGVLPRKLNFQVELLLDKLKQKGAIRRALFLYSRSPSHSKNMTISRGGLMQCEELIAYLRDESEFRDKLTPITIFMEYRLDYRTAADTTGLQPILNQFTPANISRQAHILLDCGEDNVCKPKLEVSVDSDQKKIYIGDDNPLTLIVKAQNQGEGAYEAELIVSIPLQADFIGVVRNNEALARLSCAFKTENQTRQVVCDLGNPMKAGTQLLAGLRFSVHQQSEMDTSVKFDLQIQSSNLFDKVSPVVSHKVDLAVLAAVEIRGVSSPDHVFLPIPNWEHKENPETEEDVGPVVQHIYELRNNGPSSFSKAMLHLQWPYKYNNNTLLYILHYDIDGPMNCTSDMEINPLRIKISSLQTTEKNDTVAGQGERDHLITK
Integrin alpha-V/beta-6, sequence (P06756 891-1048 limits assumed): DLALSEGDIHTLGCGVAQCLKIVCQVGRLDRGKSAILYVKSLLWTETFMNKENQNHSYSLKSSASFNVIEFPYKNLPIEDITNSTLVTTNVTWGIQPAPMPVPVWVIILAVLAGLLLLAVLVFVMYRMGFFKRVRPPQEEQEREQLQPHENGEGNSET
Integrin alpha-V/beta-6, sequence (P18564 22-788 limits assumed): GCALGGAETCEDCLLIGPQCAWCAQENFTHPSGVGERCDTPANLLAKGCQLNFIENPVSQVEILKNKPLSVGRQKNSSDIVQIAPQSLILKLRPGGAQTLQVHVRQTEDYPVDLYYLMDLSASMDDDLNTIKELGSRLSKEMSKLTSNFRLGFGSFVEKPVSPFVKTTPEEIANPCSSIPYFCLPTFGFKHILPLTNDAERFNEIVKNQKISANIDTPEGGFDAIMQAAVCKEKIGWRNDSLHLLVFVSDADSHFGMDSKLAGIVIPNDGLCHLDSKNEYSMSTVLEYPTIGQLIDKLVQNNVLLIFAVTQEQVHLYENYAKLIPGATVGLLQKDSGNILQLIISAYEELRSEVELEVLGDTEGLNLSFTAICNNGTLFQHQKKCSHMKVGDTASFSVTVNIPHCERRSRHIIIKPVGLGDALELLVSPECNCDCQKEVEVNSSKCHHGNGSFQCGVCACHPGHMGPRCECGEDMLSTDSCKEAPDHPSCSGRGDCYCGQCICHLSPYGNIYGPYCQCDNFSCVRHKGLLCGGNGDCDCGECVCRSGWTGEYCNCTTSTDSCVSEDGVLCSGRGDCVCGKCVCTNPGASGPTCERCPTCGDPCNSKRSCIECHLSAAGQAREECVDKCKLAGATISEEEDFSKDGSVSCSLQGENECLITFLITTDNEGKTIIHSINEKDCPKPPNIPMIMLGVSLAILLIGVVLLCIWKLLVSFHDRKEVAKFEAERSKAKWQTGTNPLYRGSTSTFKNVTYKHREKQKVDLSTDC

Colon 26 [5] = experiment: Inhibition of tumor growth in twice daily ip dosed BALB/c mouse implanted with mouse colon 26 tumor cells after 21 days; assay type: functional, organism-based
Colon 26 [6] = experiment: Decrease in tumor volume in BALB/c mouse implanted with mouse colon 26 tumor cells at 100 mg/kg, ip twice daily after 21 days relative to control; assay type: functional; design: scale not given: the % may be the effect or the level left; details: route intraperitoneal
Mus musculus = experiment: Decrease in colon 26 tumor-induced hypercalcemia in BALB/c mouse at 100 mg/kg, ip twice daily; assay type: functional; design: scale not given: the % may be the effect or the level left; details: route intraperitoneal
M21 [7] = experiment: Decrease in tumor volume in SCID mouse implanted with human M21 cells at 100 mg/kg, ip twice daily after 28 days relative to control; assay type: functional; design: scale not given: the % may be the effect or the level left; details: route intraperitoneal
Colon 26 [8] = experiment: Decrease in tumor weight in BALB/c mouse implanted with colon 26 tumor cells at 100 mg/kg, ip twice daily after 21 days relative to control; assay type: functional; design: scale not given: the % may be the effect or the level left; details: route intraperitoneal
M21 [9] = experiment: Decrease in tumor weight in SCID mouse implanted with human M21 cells at 100 mg/kg, ip twice daily after 28 days relative to control; assay type: functional; design: scale not given: the % may be the effect or the level left; details: route intraperitoneal
M21 [10] = experiment: Inhibition of tumor growth in twice daily ip dosed SCID mouse implanted with human M21 cells after 28 days; assay type: functional, organism-based
Integrin alpha-V/beta-3 = Integrin alpha-V/beta-3 (Homo sapiens, UniProt P05106+P06756); experiment: Inhibition of alphaVbeta3 integrin receptor expressed in human 293 cells; assay type: cell-based, HEK293
Integrin alpha-V/beta-3, sequence (P05106 27-788 limits assumed): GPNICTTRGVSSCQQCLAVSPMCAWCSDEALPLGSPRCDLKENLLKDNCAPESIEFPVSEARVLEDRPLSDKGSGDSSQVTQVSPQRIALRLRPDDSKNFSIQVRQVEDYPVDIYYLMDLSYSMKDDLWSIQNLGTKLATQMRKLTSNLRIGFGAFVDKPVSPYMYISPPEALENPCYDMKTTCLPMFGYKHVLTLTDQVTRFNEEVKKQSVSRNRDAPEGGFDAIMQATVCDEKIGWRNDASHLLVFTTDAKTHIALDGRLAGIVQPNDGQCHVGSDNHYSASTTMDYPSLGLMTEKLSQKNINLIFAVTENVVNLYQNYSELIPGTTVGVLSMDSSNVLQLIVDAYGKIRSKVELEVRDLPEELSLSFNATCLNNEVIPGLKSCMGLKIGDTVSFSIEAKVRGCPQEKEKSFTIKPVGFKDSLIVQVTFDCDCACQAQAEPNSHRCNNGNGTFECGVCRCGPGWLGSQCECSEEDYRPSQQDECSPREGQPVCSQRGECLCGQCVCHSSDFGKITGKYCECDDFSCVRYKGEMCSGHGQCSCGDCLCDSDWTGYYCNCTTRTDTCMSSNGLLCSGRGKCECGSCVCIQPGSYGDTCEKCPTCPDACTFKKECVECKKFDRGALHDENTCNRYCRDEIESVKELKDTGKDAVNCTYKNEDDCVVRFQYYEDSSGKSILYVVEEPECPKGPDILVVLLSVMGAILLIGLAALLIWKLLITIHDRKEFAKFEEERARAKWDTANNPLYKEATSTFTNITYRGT
Integrin alpha-V/beta-3, sequence (P06756 31-889 limits assumed): as the sequence (P06756 31-889 limits assumed) above
Integrin alpha-V/beta-3, sequence (P06756 891-1048 limits assumed): as the sequence (P06756 891-1048 limits assumed) above

[11] = Drug level in BALB/c mouse plasma after 6 hrs at 1 mg/kg, ip; assay type: ADME, organism-based; design: dose 1 mg/kg, route intraperitoneal; details: read-out: Drug uptake

half-life [1]: 120 min
concentration at 6 h [2]: 19400 ng/mL
concentration at 6 h [3]: 84.4 µg/mL
bioavailability [4]: 5.9%
IC50 (Integrin alpha-V/beta-6): 366 nM
IC50 (Integrin alpha-V/beta-3): 1 nM
concentration at 6 h [11]: 3300 ng/mL
SMILES: O=C(O)C[C@@H](NC(=O)CNC(=O)c1cc(O)cc(NC2=NCC(F)CN2)c1)c1cc(Cl)cc(Br)c1O (some centres undefined)
Activity (Colon 26 [5]): Active
Activity (Colon 26 [6]): 60%
Activity (Mus musculus): 64%
Activity (M21 [7]): 62%
Activity (Colon 26 [8]): 55%
Activity (M21 [9]): 53%
Activity (M21 [10]): Dose-dependent effect
